One series has as its system KM20 cells. As to the kind of experiment: DNA fragmentation assay (Cell Death Detection ELISA), KM20 cells. Format: cell-based, human. Conditions: TRAIL 100 ng/mL. Here is the method: (§1) Cells were transfected with pik3r1, Akt1 or scrambled siRNA. After 48 h, adherent cells were detached by rapid trypsinization, counted in a Hausser chamber and seeded at a density of 2×10^3 cells per well in 96-well flat-bottom microtiter plates and incubated in 250 μl of growth medium for 24 h at 37° C. Media were removed and either new complete media or TRAIL (100 ng/mL) was added in a final volume of 200 μL and allowed to grow for 24 h at 37° C. After treatment, DNA fragmentation was evaluated by examination of cytoplasmic histone-associated DNA fragments (mono- and oligonucleosomes) using a Cell Death Detection ELISA^Plus kit (Roche Molecular Biochemicals) according to the manufacturer's instructions and as previously described (Wang. et al., 2002). The experiments were repeated on at least 3 separate occasions.

Series [1] has as its system severe acute pancreatitis mice. Kind of series: CMDE diet model of severe acute pancreatitis in mice. Format: in vivo. As to the method:
Choline and methionine deficient with ethionine (CMDE) was used to generate pancreatitis model in mice. Female Swiss-Webster mice were divided into two groups: control siRNA or p85α siRNA treatment group. Mice were injected with 10 μg control or p85α siRNA 3 days before and 1 day after starting experiment using hydrodynamic tail vein method. Mice were fed CMDE diet for 3 days. Ethionine (250 mg/kg, twice a day) was fed via gavage. After being fed with CMDE diet for 3 days, mice were fed with regular lab food. The mortality for 7 days was assessed in both groups.

The subject of series [2] is DSS-induced colitis mice. Kind of series: DSS-induced colitis in mice, intrarectal siRNA. Format: in vivo. Here is the method:
(§2) 60 male C57/bl6 mice aged 8 weeks and weighed around 20 g were administered with 5% (w/v) dextran sulfate sodium (DSS) in drinking water for 7 days. DSS used was 5000 MW sulfated polysaccharide (Sigma Chemical Co., St. Louis, Mo.). It is believed that DSS has direct cytotoxic effects on epithelial cells, immune cell function interference, and luminal microflora. DSS-induced inflammatory bowel disease (IBD) was characterized by epithelial damage, mucosal inflammatory infiltrates, and luminal ulceration similar to ulcerative colitis (see FIG. 1, panels A and B).
(§3) A validated clinical disease activity index (DAI) (Murano, et al., 2000; Murthy, et al., 1993) ranging from a score of 0 to 4 was calculated by an investigator blinded to the protocol using the following parameters: stool consistency, presence of fecal blood, and changes in body weight (Murano, et al., 2000). The stool consistency was assessed using the following four point scale: 0, normal; 1, soft; 2, very soft but formed; and 3, liquid. The intensity of the hemoccult paper test was scored by the following scale: 0, negative; 1, faintly blue; 2, moderately blue; 3, dark blue; and 4, blood visible.
(§4) Inflammatory bowel disease (IBD) was induced in 2-month-old C57/bl6 mice using a 5% dextran sulfate sodium (DSS) solution in drinking water. siRNA directed to either p85α or Akt1 or siCONTROL was given on days 2, 3 and 4 of DSS exposure. Due to the short half-life of siRNA in vivo, siSTABLE was used which renders siRNA more resistant to degradation resulting in a half-life of 5 days. For each mouse, 5 μg of siRNA in 25 μl of transfection buffer was transferred into a sterile Eppendorf tube. In a separate sterile polystyrene tube 20 μg of DOTAP was mixed with 70 μl transfection buffer and then the siRNA mixture was transferred to the polystyrene tube containing the DOTAP and then incubated at room temperature for 30 min. Around 100 μl of the mixture was administered via the anus, by slow instillation into the lumen of the colon using a 20-gauge catheter and a 1-ml syringe. After treatment, mice were suspended head down for 30 sec. The colonic enema was performed on the second day of DSS exposure and repeated 24 and 48 h later. Cy-3 labeled siRNA were prepared for the treatment and administered as described above; mice were sacrificed at 4 and 24 hours after treatment and spleen, liver, pancreas and colon samples organs were taken and then frozen in liquid N2. Sections (6 μm) were cut with a cryostat microtome, thaw-mounted on a glass slide (cleaned with ethanol) and analyzed by fluorescent light microscopy (excitation λ=570 ηm).
Neutrophil sequestration was measured by MPO activity determination using the O-dianisidine method as previously described (Barone, et al., 1991). Whole tissue protein (100 μg) extract was used to measure the MPO activity. Activity was expressed as the amount of enzyme necessary to generate a change in absorbance of 1.0 per min per mg wet weight of tissue.
Tissue protein (100 μg) was placed in 96-well plates. Expression of IL-1β and IL-6, TNFα, and p65 NF-κB protein in whole tissue lysates was determined using anti-mouse cytokine ELISA kits from Pierce Biotechnology, Inc. (Rockford, Ill.) as previously described (Slogoff, et al., 2004). Cytokine expression of MIP-2 was determined with an anti-mouse MIP-2 ELISA purchased from Assay Designs, Inc. (Ann Arbor, Mich.). Each ELISA was performed according to the manufacturer's instructions.
Excised colons were evaluated for approximate length, for blood content, stool consistency, and general appearance of bowel wall. Histological examination was performed on three samples of the colon from each animal. The samples were fixed in 10% buffered formalin, dehydrated in ethanol, and then embedded in paraffin. Sections (4 μm) were then prepared and stained with hematoxylin and eosin.

A further series deals with PI3K/Akt pathway. As to the kind of experiment: Western blot of colon from mice given DSS and intrarectal siRNA. Format: in vivo. Here is the method:
as §4
Western immunoblot analyses were performed as described previously (Wang, et al., 2002). Individual colon samples were homogenized using a Polytron power homogenizer in cell lysis buffer at 4° C. for 30 min. Lysates were clarified by centrifugation (8,000 g for 20 min at 4° C.), and sonicated for 30-45 sec on ice. Protein concentrations were determined using the method of Bradford (1976). Total protein (100 μg) was resolved on a 10% polyacrylamide gel and transferred to Immobilon-P […] membranes as described previously (Wang, et al., 2002). Filters were incubated overnight at 4° C. in blocking solution followed by a 1-h incubation with primary antibodies. Filters were washed three times in blocking solution and incubated with horseradish peroxidase-conjugated secondary antibody for 1 h. After three additional washes, the immune complexes were visualized by enhanced chemiluminescence (ECL) from Amersham (Arlington Heights, Ill.).
For orientation: Immunoblotting shows a protein as a band on a membrane.

Series [3] concerns DSS-induced colitis mice. As to the kind of experiment: DSS-induced colitis in mice, wortmannin by oral gavage. The class given is in vivo. Conditions: DSS 5% 7 days, wortmannin 1.5 mg/kg oral gavage daily from day 2; day 7; DSS alone mean DAI 4; scale 0 to 4. As to the method: as §2
as §3, with “visible. […]” for “visible.”
Histology sections of large intestine were stained with H&E to evaluate degree of inflammatory changes in the mice before and after the wortmannin treatment. Neutrophil sequestration was assessed through MPO assay. […]

In a further series the test system is KM12C cells. Kind of series: DNA fragmentation assay (Cell Death Detection ELISA), KM12C cells. Format: cell-based, human. Conditions: TRAIL 100 ng/mL. As to the method: as §1
A general note: In an ELISA, binding on a coated surface is turned into a signal by an enzyme label.

Setting [4] is: DSS, after day 3, values near control levels by day 7.
[5] abbreviates: colon, compared to DSS+control siRNA.

For the molecule Z-DEVD-fmk [reference compound], the “induction of apoptosis mediated by the combination of TRAIL and pik3r1 or Akt1 siRNA” value in the series with KM20 cells (KM20 cells pretreated with the caspase-3 inhibitor) is on record as “completely blocked”.

As for “p85α siRNA: siSTABLE siRNA duplex to Mus musculus p85α mRNA; sense gcagcaaccgaaacaaagcuu (SEQ ID NO:2), antisense gcuuuguuucgguugcugcuu (SEQ ID NO:3) (sense GCAGCAACCGAAACAAAGCUU; antisense GCUUUGUUUCGGUUGCUGCUU; siSTABLE chemically modified siRNA, pattern not given here)”, the “edema and bleeding in pancreas” value in series [1] (10 μg siRNA by hydrodynamic tail vein 3 days before and 1 day after start) was “no edema and bleeding”. Also, the “mice died (mortality)” value in series [1] (after 7 days) was found to be 30%. The “gross changes in the colon associated with DSS treatment (shortening, intraluminal hemorrhage, necrosis)” value in the series on DSS-induced colitis mice [2] (5 μg siRNA with DOTAP intrarectally on days 2, 3 and 4 of DSS) is listed as “abrogated”. Besides, the “preventing the bowel shortening, mucosal wall thinning and blood in the colon (comparison of the two siRNA)” value in the series on DSS-induced colitis mice [2] (DSS, intrarectal siRNA) is listed as “more effective than siRNA to Akt1”. In the series with DSS-induced colitis mice [2] (setting [4]), the “disease activity index (DAI), course” value was “stabilized and then improved”; the “weight loss, course” value was “stabilized and then improved”. For the same molecule, in the series with DSS-induced colitis mice [2] (setting [5]), the “cytokine tissue levels (IL-1β, IL-6, MIP-2, TNFα)” value is listed as “significantly attenuated”; the “neutrophil sequestration (MPO activity)” value is “significantly attenuated”; the “p65 NF-κB activity” value was “significantly attenuated”. For the same molecule, in the series on DSS-induced colitis mice [2] (compared with DSS and control siRNA), the “leukocyte infiltration and mucosal damage (colonic histology)” value was “decreased”. Also, in the series on PI3K/Akt pathway, the “Akt expression in colon” value is recorded as “not altered” and the “p110δ expression in colon” value is recorded as “not altered”. Moreover, the “p85α expression in colon” value in the series on PI3K/Akt pathway (normal and DSS-treated colon) is given as “decreased”. Also, in the series with PI3K/Akt pathway (untreated and DSS-treated colon), the “pAkt expression in colon” value is on record as “decreased”.

In the case of `COC[C@H]1OC(=O)c2coc3c2[C@@]1(C)C1=C(C3=O)[C@@H]2CCC(=O)[C@@]2(C)C[C@H]1OC(C)=O` [wortmannin, Wortmannin], in the series on DSS-induced colitis mice [3], the “mean DAI score” value came out at 2.

B1: TNF-related apoptosis-inducing ligand (protein, UniProt P50591 1-281, looked up)
Tumor necrosis factor ligand …: MAMMEVQGGPSLGQTCVLIVIFTVLLQSLCVAVTYVYFTNELKQMQDKYSKSGIACFLKEDDSYWDPNDEESMNSPCWQVKWQLRQLVRKMILRTSEETISTVQEKQQNISPLVRERGPQRVAAHITGTRGRSNTLSSPNSKNEKALGRKINSWESSRSGHSFLSNLHLRNGELVIHEKGFYYIYSQTYFRFQEEIKENTKNDKQMVQYIYKYTSYPDPILLMKSARNSCWSKDAEYGLYSIYQGGIFELKENDRIFVSVTNEHLIDMDHEASFFGAFLVG
notes: apoptosis-inducing agent
B1: the “effect of TRAIL alone on cell growth” value in the series with KM12C cells and with KM20 cells (KM20 cells) was “no effect” each time.

Values taken from patent publication US20050272682A1, “SiRNA targeting PI3K signal transduction pathway and siRNA-based therapy” (priority 2004, published 2005).
